Assay results taken from ChEMBL document CHEMBL1133915, “Design and synthesis of novel antibacterial agents with inhibitory activity against DNA polymerase III” (Bioorg Med Chem Lett, 2001).
In brackets after ≈: the same amount, converted by molar mass.

Legend:
[1] = system: Enterococcus faecium; experiment: Tested for in vitro anti bacterial activity against Enterococcus faecium RLAI (ampicillin and imipenem resistant); type: functional
[2] = system: Streptococcus pneumoniae; experiment: Tested for in vitro anti bacterial activity against Streptococcus pneumoniae CL5350; type: functional
[3] = Tested for in vitro antibacterial activity against DNA polymerase III; design: species or system Staphylococcus aureus
[4] = system: Bacillus subtilis; experiment: Tested for in vitro anti bacterial activity against Bacillus subtilis ATCC- 6633; type: functional
[5] = system: Staphylococcus aureus; experiment: Tested for in vitro anti bacterial activity against Staphylococcus aureus MB2985 […]; type: functional
[6] = system: Enterococcus faecium; experiment: Tested for in vitro anti bacterial activity against Enterococcus faecium RLAI (ampicillin and imipenem resistant), growth unaffected at highest level; type: functional
[7] = system: Streptococcus pneumoniae; experiment: Tested for in vitro anti bacterial activity against Streptococcus pneumoniae CL5350 and growth affected but tested at highest level of inhibition; type: functional
[8] = system: Staphylococcus aureus; experiment: In vitro percent inhibition against Pol III of Staphylococcus aureus at a concentration of 500 uM
[9] = Tested for in vitro antibacterial activity against DNA polymerase III of Staphylococcus aureus

Compound	MIC [1]	IC50 [3]	MIC [4]	MIC [5]	inhibition [8]	other results
Cc1ccc(Nc2cc(Cl)nc(N)n2)cc1Br	31 µg/mL (≈ 98.9 µM)	94 µM	8 µg/mL (≈ 25.5 µM)			MIC [2]: 31 µg/mL (≈ 98.9 µM)
Cc1ccc(Nc2cc(Cl)nc(N)n2)cc1C		115 µM	6 µg/mL (≈ 24.1 µM)	> 25 µg/mL		MIC [6]: > 25 µg/mL; MIC [7]: > 25 µg/mL
Cc1ccc(Nc2cc(N(C)C)nc(N)n2)cc1C					27%	
CCc1cc(Nc2cc(Oc3ccc(F)cc3)nc(N)n2)ccc1C					33%	
CCc1cc(Nc2cc(Cl)nc(N)n2)ccc1C	13 µg/mL (≈ 49.5 µM)	53 µM	3 µg/mL (≈ 11.4 µM)	> 26 µg/mL		MIC [2]: 26 µg/mL (≈ 99 µM)
CCc1cc(Nc2cc(Oc3cccc(C)c3)nc(N)n2)ccc1C					88%	IC50 [9]: 54 µM
CC(C)(C)c1cccc(Nc2cc(Cl)nc(N)n2)c1	14 µg/mL (≈ 50.6 µM)	89 µM	7 µg/mL (≈ 25.3 µM)	7 µg/mL (≈ 25.3 µM)		MIC [2]: 14 µg/mL (≈ 50.6 µM)
CSc1cc(Nc2ccc(C)c(I)c2)nc(N)n1					20%	
Cc1ccc(Nc2cc(Sc3ccccc3)nc(N)n2)cc1I					2%	
Nc1nc(Cl)cc(Nc2ccc(Cl)c(Cl)c2)n1	29 µg/mL (≈ 100 µM)	98 µM	7 µg/mL (≈ 24.2 µM)	29 µg/mL (≈ 100 µM)		MIC [7]: > 29 µg/mL
Cc1ccc(Nc2cc(Cl)nc(N)n2)cc1Cl	27 µg/mL (≈ 100 µM)	126 µM	13 µg/mL (≈ 48.3 µM)	27 µg/mL (≈ 100 µM)		MIC [2]: 27 µg/mL (≈ 100 µM)
CCc1cc(Nc2cc(Oc3ccc(Br)cc3)nc(N)n2)ccc1C					97%	IC50 [9]: 10 µM
CCc1cc(Nc2cc(Oc3ccc(Cl)cc3)nc(N)n2)ccc1C					13%	
Cc1ccc(Nc2cc(Cl)nc(N)n2)cc1I	36 µg/mL (≈ 99.8 µM)	51 µM	5 µg/mL (≈ 13.9 µM)	> 36 µg/mL		MIC [2]: 18 µg/mL (≈ 49.9 µM)
Nc1nc(Cl)cc(Nc2ccc3c(c2)CCC3)n1		119 µM	3 µg/mL (≈ 11.5 µM)	> 26 µg/mL		MIC [6]: > 26 µg/mL; MIC [7]: > 26 µg/mL
Cc1cc(Nc2ccc(C)c(I)c2)nc(N)n1					21%	
Cc1ccc(Nc2cc(S)nc(N)n2)cc1I					54%	
